ChEMBL document CHEMBL1142962, “Antiproliferative prenylated stilbenes and flavonoids from Macaranga alnifolia from the Madagascar rainforest” (J Nat Prod, 2007)

Tested on: A2780 (human ovarian cancer)
Assay: Antiproliferative activity against drug-sensitive human A2780 cells

IC50 | Structure (SMILES)
23.5 µM | CC(C)=CCC/C(C)=C/Cc1c(O)cc2c(c1O)C(=O)[C@H](O)[C@@H](c1ccc(O)cc1)O2 [BONANNIOL A]
11.5 µM | CC(C)=CCC/C(C)=C/Cc1c(O)cc2c(c1O)C(=O)[C@H](O)[C@@H](c1ccc(O)c(O)c1)O2 [DIPLACOL]
10.5 µM | CC(C)=CCC/C(C)=C/Cc1c(O)cc2c(c1O)C(=O)C[C@@H](c1ccc(O)c(O)c1)O2 [NYMPHAEOL A]

Structure (SMILES) | IC50
CC(C)=CCC/C(C)=C/Cc1c(O)cc2c(c1O)C(=O)C[C@@H](c1ccc(O)cc1)O2 [BONANNIONE A] | 24.5 µM
